Molecules are shown by their SMILES.

Results on 1 compound are retold here after article PMC13430218 (Clinical Cancer Research, 2026).

The nature of this data set: Plasma pharmacokinetics of rogocekib, LC-MS/MS, noncompartmental. In kind it is in vivo, human. As to the method:
For other patients in the expansion cohort, peripheral blood samples were collected before and after the dose at 2 and 6 hours on day 1 of cycle 1, and before dose of day 1 in cycles 2 and 4.
Descriptive statistics such as medians, standard deviations, and ranges were calculated. The Kaplan–Meier method was utilized for OS and PFS analysis. PK/PD parameters were assessed using a noncompartmental approach. Exploratory biomarkers were assessed through descriptive statistics.

Regarding `COc1ncnn2ccc(-c3cnc4nc(C)n(Cc5nnc([C@@H](C)F)o5)c4c3)c12` [rogocekib, Rogocekib], the “Tmax, median (min, max)” value (Cohort A 10 mg twice weekly, n = 1, cycle 1 day 1, oral) was 2 (2, 2) hours. In addition, the “AUC0–24 hours, geometric mean (%CV)” value (Cohort A 140 mg twice weekly, n = 6, cycle 1 day 1, oral) was 5,823.618 (22.2) hours·ng/mL.
